PMC9019904, “AD Informer Set: Chemical tools to facilitate Alzheimer's disease drug discovery” (Alzheimer's & Dementia : Translational Research & Clinical …, 2022)

Experiments:
[1] = tested on: BV2 (mouse microglia) cell line; test: pHrodo-myelin phagocytosis/cell viability high content imaging assay: phagocytosis signal; assay type: cell-based
Summary of the method: (§1)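 Phagocytosis and cell viability were measured together by high content imaging about 22 hours after pHrodo-myelin addition. Three measurements were extracted from the images. Intensity increase and decrease were taken as early and later apoptosis, respectively.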

[2] = tested on: HMC3 (human microglia) cell line; test: as above; assay type: cell-based
Summary of the method: as §1

[3] = tested on: BV2 (mouse microglia) cell line; test: pHrodo-myelin phagocytosis/cell viability high content imaging assay: viability (cell count, nuclear area, nuclear intensity); conditions: 48 hours treatment
Summary of the method: (§2)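 10 μM single dose, 48 h total; pHrodo-myelin present final 20 h. Read-out: automated imaging, total cell count/well, mean nuclear intensity/cell. n=2, normalized to untreated wells, % control.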

[4] = tested on: HMC3 (human microglia) cell line; test: as above; conditions: 48 hours treatment
Summary of the method: as §2

[5] = BV2 cells, 10 uM compound, 48 hours treatment, pHrodo-myelin final 20 hours
[6] = HMC3 cells, 10 uM compound, 48 hours treatment, pHrodo-myelin final 20 hours
[7] = BV2, compound 10 uM, pHrodo-myelin
[8] = HMC3, compound 10 uM, pHrodo-myelin

Compound	4. Phagocytosis (% control) [1, 5] [% control]	4. Phagocytosis (% control) [2, 6] [% control]	1. Cell count (% control) ([3]; BV2 cells, 10 uM compound)	2. Nuclear Area (% Control) ([3]; BV2 cells, 10 uM compound)	3. Nuclear DNA Intensity (% control) ([3]; BV2 cells, 10 uM compound)	1. Cell count (% control) ([4]; HMC3 cells, 10 uM compound)	2. Nuclear Area (% Control) ([4]; HMC3 cells, 10 uM compound)	3. Nuclear DNA Intensity (% control) ([4]; HMC3 cells, 10 uM compound)	4. Phagocytosis (% control) [1, 7] [% control]	4. Phagocytosis (% control) [2, 8] [% control]	1. Cell count (% control) ([3]; BV2, compound 10 uM)	2. Nuclear Area (% Control) ([3]; BV2, compound 10 uM)	3. Nuclear DNA Intensity (% control) ([3]; BV2, compound 10 uM)	1. Cell count (% control) ([4]; HMC3, compound 10 uM)	2. Nuclear Area (% Control) ([4]; HMC3, compound 10 uM)	3. Nuclear DNA Intensity (% control) ([4]; HMC3, compound 10 uM)
N#CC(CCCN1CCN(/N=C/c2cccnc2)CC1)(c1ccccc1)c1ccccc1 [UNC10302973A]	132.9	84.2	73.0	106.0	96.8	118.4	102.3	89.1								
CCC(=C(c1ccc(O)cc1)c1ccc(OCCN(C)C)cc1)c1ccccc1 [UNC10302895A]	182.9	89.5	114.3	103.3	103.4	134.2	100.6	93.3								
CC[C@H](Nc1ncnc2[nH]cnc12)c1nc2cccc(F)c2c(=O)n1-c1ccccc1 [Idelalisib]									107.9	5.6	17.2	138.0	108.4	61.4	105.8	124.0
C[C@H](CCCC(C)(C)O)[C@H]1CC[C@H]2[C@@H]3CC=C4C[C@@H](O)CC[C@]4(C)[C@H]3CC[C@]12C [UNC10302834A]									50.2	45.5	75.6	103.0	136.7	99.4	81.6	144.3
COc1cc([C@@H]2c3cc4c(cc3[C@H](O)[C@H]3COC(=O)[C@H]23)OCO4)cc(OC)c1OC [UNC10100984A]	197.0	32.6	10.9	112.2	112.7	62.5	67.2	227.6								
CC(C)CCC[C@@H](C)[C@H]1CC[C@H]2[C@@H]3CC[C@H]4C[C@H](N)CC[C@]4(C)[C@H]3CC[C@]12C [UNC10302970A]	160.9	40.9	18.3	108.5	93.1	97.2	81.8	134.0								
CN(C)C/C=C/C(=O)Nc1cc2c(Nc3ccc(F)c(Cl)c3)ncnc2cc1O[C@H]1CCOC1 [UNC10302894A]	41.4	43.8		107.0	89.4	95.3	52.1	246.1								
COc1ccc(CC[C@@H](OC(=O)[C@@H]2CCCCN2C(=O)[C@H](c2cc(OC)c(OC)c(OC)c2)C2CCCCC2)c2cccc(OCC(=O)O)c2)cc1OC [UNC10302701A]									156.6	71.9	117.8	104.1	103.5	116.9	101.8	97.5
CCN(CC)c1ccc(/C=N/NC(=O)c2ccc(O)cc2)cc1 [UNC10302868A]	142.8	65.0	64.8	105.9	100.1	102.3	101.3	100.0								
CC1(C)CCC(CN2CCN(c3ccc(C(=O)NS(=O)(=O)c4ccc(NCC5CCOCC5)c([N+](=O)[O-])c4)c(Oc4cnc5[nH]ccc5c4)c3)CC2)=C(c2ccc(Cl)cc2)C1 [UNC10302836A]									211.1	79.7	115.0	107.1	100.7	133.1	98.6	97.8
CNC(=O)c1c(F)cccc1Nc1nc(Nc2cc3c(cc2OC)CCN3C(=O)CN(C)C)nc2[nH]ccc12 [UNC10302864A]	89.4	58.3	66.3	109.6	102.8	108.9	90.1	123.0								
c1ccc(CNc2nc(NCc3ccccc3)c3ccccc3n2)cc1 [UNC10302879A]	0.00106	0.0516	27.3	94.3	65.0	28.2	43.8	179.2								
C[C@@H](Oc1cc(-c2cnn(C3CCNCC3)c2)cnc1N)c1c(Cl)ccc(F)c1Cl [UNC10220526A]	0.00113	0.09	44.9	109.8	15.3	41.7	75.9	183.7								
C[C@@H]1O[C@@H](O[C@H]2[C@H](Oc3cc(O)c4c(c3)O[C@H](c3ccc(O)cc3)CC4=O)O[C@H](CO)[C@@H](O)[C@@H]2O)[C@H](O)[C@H](O)[C@H]1O [UNC10242153A]	167.6	65.7	113.5	104.9	98.8	139.8	102.9	93.8								
C=CC(=O)Nc1cc2c(Nc3ccc(F)c(Cl)c3)ncnc2cc1OCCCN1CCOCC1.Cl.Cl [UNC10126563B]	4.1	0.263	25.9	92.7	52.1	45.6	65.0	201.5								
